Laboratory results as given in patent US10681909B2, “Herbicidal triazoles” (FMC Corporation, priority 2014, dated 2020).

How the values were obtained:
[1] = test system: pigweed; test: Test A postemergence; type: in vivo, Amaranthus retroflexus; conditions: 0 to 100 scale (0 no effect, 100 complete control), approx. 10 d
How it was run: (§1)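 Pre- and postemergence spray tests in a loam soil–sand mixture: seeded soil received a directed spray, while established seedlings 2–10 cm high at the one- to two-leaf stage were treated over the top. Compounds were carried in non-phytotoxic solvent with surfactant.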

[2] = test system: wheat; test: Test A preemergence; type: in vivo, Triticum aestivum; conditions: 0 to 100 scale (0 no effect, 100 complete control)
From the text: (§2) Seeds of plant species selected from barnyardgrass (Echinochloa crus-galli), crabgrass, large (large crabgrass, Digitaria sanguinalis), kochia (Kochia scoparia), ragweed (common ragweed, Ambrosia elatior), foxtail, giant (giant foxtail, Setaria faberii), morningglory (Ipomoea spp.), pigweed (Amaranthus retroflexus), velvetleaf (Abutilon theophrasti), ryegrass, Italian (Italian ryegrass, Lolium multiflorum), wheat (Triticum aestivum), and corn (Zea mays) were planted into a blend of loam soil and sand and treated preemergence with a directed soil spray using test chemicals formulated in a non-phytotoxic solvent mixture which included a surfactant. At the same time, plants selected from these crop and weed species and also blackgrass (Alopecurus myosuroides), and galium (catchweed bedstraw, Galium aparine), were planted in pots containing the same blend of loam soil and sand and treated with postemergence applications of test chemicals formulated in the same manner. Plants ranged in height from 2 to 10 cm and were in the one- to two-leaf stage for the postemergence treatment. […] A dash (-) response means no test result.

[3] = test system: crabgrass, large; test: Test A preemergence; type: in vivo, Digitaria sanguinalis; conditions: 0 to 100 scale (0 no effect, 100 complete control)
From the text: as §2

[4] = test system: corn; test: Test A postemergence; type: in vivo, Zea mays; conditions: 0 to 100 scale (0 no effect, 100 complete control), approx. 10 d
How it was run: as §1

[5] = test system: corn; test: Test A preemergence; type: in vivo, Zea mays; conditions: 0 to 100 scale (0 no effect, 100 complete control)
From the text: as §2

[6] = test system: pigweed; test: Test A preemergence; type: in vivo, Amaranthus retroflexus; conditions: 0 to 100 scale (0 no effect, 100 complete control)
How it was run: as §1

[7] = test system: velvetleaf; test: Test A postemergence; type: in vivo, Abutilon theophrasti; conditions: 0 to 100 scale (0 no effect, 100 complete control), approx. 10 d
From the text: as §2

[8] = test system: barnyardgrass; test: Test B flooded paddy test; type: in vivo, Echinochloa crus-galli; conditions: applied to paddy water at 2-leaf stage, visual rating after 13 to 15 d, scale 0 (no effect) to 100 (complete control)
From the text: (§3) At time of treatment, test pots were flooded to 3 cm above the soil surface, treated by application of test compounds directly to the paddy water, and then maintained at that water depth for the duration of the test. Treated plants and controls were maintained in a greenhouse for 13 to 15 d, after which time all species were compared to controls and visually evaluated. […] A dash (-) response means no test result.

[9] = test system: sedge, umbrella; test: Test B flooded paddy test; type: in vivo, Cyperus difformis; conditions: applied to paddy water at 2-leaf stage, visual rating after 13 to 15 d, scale 0 (no effect) to 100 (complete control)
From the text: as §3

[10] = test system: wheat; test: Test A postemergence; type: in vivo, Triticum aestivum; conditions: 0 to 100 scale (0 no effect, 100 complete control), approx. 10 d
How it was run: as §1

[11] = test system: velvetleaf; test: Test A preemergence; type: in vivo, Abutilon theophrasti; conditions: 0 to 100 scale (0 no effect, 100 complete control)
From the text: as §2

[12] = test system: foxtail, giant; test: Test A preemergence; type: in vivo, Setaria faberii; conditions: 0 to 100 scale (0 no effect, 100 complete control)
How it was run: as §1

[13] = test system: morningglory; test: Test A postemergence; type: in vivo, Ipomoea spp.; conditions: 0 to 100 scale (0 no effect, 100 complete control), approx. 10 d
From the text: as §2

[14] = test system: ducksalad; test: Test B flooded paddy test; type: in vivo, Heteranthera limosa; conditions: applied to paddy water at 2-leaf stage, visual rating after 13 to 15 d, scale 0 (no effect) to 100 (complete control)
From the text: as §3

[15] = test system: crabgrass, large; test: Test A postemergence; type: in vivo, Digitaria sanguinalis; conditions: 0 to 100 scale (0 no effect, 100 complete control), approx. 10 d
From the text: as §2

[16] = test system: barnyardgrass; test: Test A preemergence; type: in vivo, Echinochloa crus-galli; conditions: 0 to 100 scale (0 no effect, 100 complete control)
How it was run: as §1

[17] = test system: barnyardgrass; test: Test A postemergence; type: in vivo, Echinochloa crus-galli; conditions: 0 to 100 scale (0 no effect, 100 complete control), approx. 10 d
How it was run: as §1

[18] = test system: foxtail, giant; test: Test A postemergence; type: in vivo, Setaria faberii; conditions: 0 to 100 scale (0 no effect, 100 complete control), approx. 10 d
How it was run: as §1

[19] = test system: morningglory; test: Test A preemergence; type: in vivo, Ipomoea spp.; conditions: 0 to 100 scale (0 no effect, 100 complete control)
From the text: as §2

[20] = test system: rice; test: Test B flooded paddy test; type: in vivo, Oryza sativa; conditions: applied to paddy water at 2-leaf stage, visual rating after 13 to 15 d, scale 0 (no effect) to 100 (complete control)
From the text: as §3

SMILES | Plant response rating, Pigweed ([1]; 125 g ai/ha) | Plant response rating, Pigweed ([1]; 500 g ai/ha) | Plant response rating, Wheat ([2]; 125 g ai/ha) | Plant response rating, Wheat ([2]; 500 g ai/ha, approx. 10 d) | Plant response rating, Crabgrass, Large ([3]; 125 g ai/ha) | Plant response rating, Crabgrass, Large ([3]; 500 g ai/ha, approx. 10 d) | Plant response rating, Corn ([4]; 125 g ai/ha) | Plant response rating, Corn ([4]; 500 g ai/ha) | Plant response rating, Corn ([5]; 125 g ai/ha) | Plant response rating, Corn ([5]; 500 g ai/ha, approx. 10 d) | Plant response rating, Pigweed ([6]; 125 g ai/ha) | Plant response rating, Pigweed ([6]; 500 g ai/ha, approx. 10 d) | Plant response rating, Velvetleaf ([7]; 125 g ai/ha) | Plant response rating, Velvetleaf ([7]; 500 g ai/ha) | Plant response rating, Wheat ([10]; 125 g ai/ha) | Plant response rating, Wheat ([10]; 500 g ai/ha) | Plant response rating, Velvetleaf ([11]; 125 g ai/ha) | Plant response rating, Velvetleaf ([11]; 500 g ai/ha, approx. 10 d) | Plant response rating, Foxtail, Giant ([12]; 125 g ai/ha) | Plant response rating, Foxtail, Giant ([12]; 500 g ai/ha, approx. 10 d) | also measured
CSc1nc(-c2ccc(F)cc2)nn1Cc1ccnc(C(F)(F)F)c1 [Compound 21] | 30 | 80 | 0 | 0 | 10 | 80 | 10 | 20 | 0 | 0 | 10 | 90 | 10 | 20 | 0 | 10 | 0 | 0 | 0 | 60 | Plant response rating, Barnyardgrass, Flood ([8]; 250 g ai/ha): 80; Plant response rating, Sedge, Umbrella, Flood ([9]; 250 g ai/ha): 90; Plant response rating, Morningglory ([13]; 125 g ai/ha): 20; Plant response rating, Morningglory ([13]; 500 g ai/ha): 30; Plant response rating, Ducksalad, Flood ([14]; 250 g ai/ha): 95; Plant response rating, Crabgrass, Large ([15]; 125 g ai/ha): 20; Plant response rating, Crabgrass, Large ([15]; 500 g ai/ha): 20; Plant response rating, Barnyardgrass ([16]; 125 g ai/ha): 0; Plant response rating, Barnyardgrass ([16]; 500 g ai/ha, approx. 10 d): 0; Plant response rating, Barnyardgrass ([17]; 125 g ai/ha): 0; Plant response rating, Barnyardgrass ([17]; 500 g ai/ha): 10; Plant response rating, Foxtail, Giant ([18]; 125 g ai/ha): 10; Plant response rating, Foxtail, Giant ([18]; 500 g ai/ha): 20; Plant response rating, Morningglory ([19]; 125 g ai/ha): 0; Plant response rating, Morningglory ([19]; 500 g ai/ha, approx. 10 d): 0; Plant response rating, Rice, Flood ([20]; 250 g ai/ha): 25
CCCOc1nc(-c2ccc(F)cc2)nn1Cc1ccnc(C(F)(F)F)c1 [Compound 10] | 100 | 100 | 0 | 20 | 100 | 100 | 20 | 30 | 0 | 20 | 100 | 100 | 50 | 80 | 10 | 10 | 0 | 30 | 100 | 100 | Plant response rating, Barnyardgrass, Flood ([8]; 125 g ai/ha): 45; Plant response rating, Sedge, Umbrella, Flood ([9]; 125 g ai/ha): 80; Plant response rating, Morningglory ([13]; 125 g ai/ha): 50; Plant response rating, Morningglory ([13]; 500 g ai/ha): 90; Plant response rating, Ducksalad, Flood ([14]; 125 g ai/ha): 70; Plant response rating, Crabgrass, Large ([15]; 125 g ai/ha): 40; Plant response rating, Crabgrass, Large ([15]; 500 g ai/ha): 90; Plant response rating, Barnyardgrass ([16]; 125 g ai/ha): 30; Plant response rating, Barnyardgrass ([16]; 500 g ai/ha, approx. 10 d): 100; Plant response rating, Barnyardgrass ([17]; 125 g ai/ha): 40; Plant response rating, Barnyardgrass ([17]; 500 g ai/ha): 80; Plant response rating, Foxtail, Giant ([18]; 125 g ai/ha): 50; Plant response rating, Foxtail, Giant ([18]; 500 g ai/ha): 90; Plant response rating, Morningglory ([19]; 125 g ai/ha): 10; Plant response rating, Morningglory ([19]; 500 g ai/ha, approx. 10 d): 20; Plant response rating, Rice, Flood ([20]; 125 g ai/ha): 20
